Entries after “also recorded” stand apart in the source; their conditions may differ. Marks after values point to notes of the source that are not given here.
What was measured:
CYP3A5 [1] = target: T1, CYP3A5 (Homo sapiens, UniProt P20815); test: Metabolic stability (substrate depletion) with CYP3A5; type: in vitro ADME; settings: for elimination rate constant k by CYP3A5 / half-life at 1 μM: 1 μM substrate, CYP3A5 10 pmol/mL; for CLint (CYP3A5): PBPK parameter, in vitro data obtained; for half-life at 1 μM: human, CYP3A5 enzyme, pH 7.4, read-out: T1/2 by CYP3A5; for Intrinsic clearance, CLint CYP3A5: substrate depletion
T1 construct: purchased BD Gentest (Woburn, Mass.)
Protocol: (§1) The metabolic stability experiments were performed to derive intrinsic clearance (CLint) values via the substrate depletion method. […] NADPH A was subsequently added to initiate the reaction. […] The reaction mixtures were incubated at 37° C. with gentle agitation. At the respective time points (0-60 min), 80 μL of the reaction mixture was quenched using an equal volume of ice-cold ACN with 1 μM tamoxifen as internal standard (IS). The samples were then centrifuged at 3220 g at 4° C. for 30 min before transferring the supernatant to a 96-well plate for liquid chromatography-tandem mass spectrometry (LC-MS/MS) analysis.
(§2) The mean of triplicate peak area ratios for each compound was normalized to that of the same compound at the 0 min time point to obtain the percentage of substrate remaining at each time point. This was plotted against incubation time for each compound and the data was then fitted to a one-phase decay model using GraphPad Prism software (version 8.02; GraphPad Inc., San Diego, Calif.) to obtain an estimation for the elimination rate constant (k). CLint was then calculated based on equation 3:
(§3) In equation 3, k=elimination rate constant (min^−1); V=volume of incubation mixture (mL); P=amount of protein in mixture (mg).

CYP3A5 [2] = target: T1, CYP3A5; test: Time- and concentration-dependent inactivation of CYP3A5, rivaroxaban probe; type: in vitro ADME; settings: recombinant CYP3A5, pH 7.4, probe rivaroxaban (50 μM), in vitro data obtained, read-out: Mechanism-based inactivation KI CYP3A5
Protocol: Incubations were conducted in triplicates in 96-well plates. Primary incubation mixtures comprising various concentrations of inhibitor (0-20 μM) were pre-incubated at 37° C. for 3 min with CYP3A4 or CYP3A5 (20 pmol/mL) and NADPH B in potassium phosphate buffer (100 mM, pH 7.4). To initiate the enzymatic reaction, 5 μL NADPH A was added to the primary incubation. The final primary incubation mixture volume was 100 μL and contained <1% v/v organic solvent. At different pre-incubation time points (3, 8, 15, 22, 30, and 45 min) after the addition of NADPH A, 5 μL aliquots of the primary incubation were transferred to 95 μL of the secondary incubation containing 50 μM rivaroxaban, the NADPH A and B, and potassium phosphate buffer (100 mM, pH 7.4) to yield a 20-fold dilution. The secondary incubation mixtures were incubated at 37° C. for 2 h with CYP3A4 or CYP3A5 before 80 μL aliquots were removed and quenched with an equal volume of ice-cold ACN containing 4 μM dexamethasone as IS. The samples were then centrifuged at 3220 g at 4° C. for 30 min before transferring the supernatant to a 96-well plate for liquid chromatography-tandem mass spectrometry (LC-MS/MS) analysis. The main rivaroxaban metabolite, morpholinone hydroxylated metabolite, was quantified using LC-MS/MS analysis. […]

hiPSC-CM [3] = test: Extracellular field potential duration (FPD), multi electrode array; type: cell-based, human; settings: MEA, 0-10 μM
Protocol: Electrophysiological perturbations of hiPSC-CM were measured using multi electrode array (MEA) recording system (Multichannel Systems, Reutlingen, Germany). […] FPD measurements were normalized (corrected FPD [cFPD]) to the beating rate of the contracting areas with the Bazzet correction formula: cFPD=FPD/√(RR interval) as described previously^3. One-phase decay algorithm was used to plot corrected FPD curves.

hiPSC-CM [4] = test: Beat-to-beat variability (BBV), Poincaré plots; type: cell-based, human; settings: 10 nM
Source text: The BBV calculations were done using Kubios HRV2.2 (Department of Applied Physics, University of Eastern Finland, Kuopio, Finland)^4. BBV is visualised as scatterplots known as Poincaré plots. In these plots, each time interval between two successive beats [inter-beat interval (RRn)] is plotted against the subsequent interval (RRn+1). Poincaré plot descriptors SD1 and SD2 define the extent of variability. SD1 represents a measure for short-term variability, whereas SD2 describes long-term variability^5.

CYP3A4 = target: T2, CYP3A4 (Homo sapiens, UniProt P08684); test: Metabolic stability (substrate depletion) with CYP3A4; type: in vitro ADME; settings: for elimination rate constant k by CYP3A4 / half-life at 1 μM: 1 μM substrate, CYP3A4 10 pmol/mL; for CLint (CYP3A4): PBPK parameter, in vitro data obtained; for half-life at 1 μM: human, CYP3A4 enzyme, pH 7.4, read-out: T1/2 by CYP3A4; for Intrinsic clearance, CLint CYP3A4: substrate depletion
T2 construct: purchased BD Gentest (Woburn, Mass.)
Protocol: as §1, §2, §3

CYP2J2 = target: T3, CYP2J2 (Homo sapiens, UniProt P51589); test: Inhibition of CYP2J2-mediated astemizole metabolism in hiPSC-CM; type: cell-based; parameters: endogenous in cells; host or cells: hiPSC-CM (from human foreskin fibroblasts); settings: 2 μM drug co-incubated with 1 μM astemizole
T3 sequence (P51589 1-502): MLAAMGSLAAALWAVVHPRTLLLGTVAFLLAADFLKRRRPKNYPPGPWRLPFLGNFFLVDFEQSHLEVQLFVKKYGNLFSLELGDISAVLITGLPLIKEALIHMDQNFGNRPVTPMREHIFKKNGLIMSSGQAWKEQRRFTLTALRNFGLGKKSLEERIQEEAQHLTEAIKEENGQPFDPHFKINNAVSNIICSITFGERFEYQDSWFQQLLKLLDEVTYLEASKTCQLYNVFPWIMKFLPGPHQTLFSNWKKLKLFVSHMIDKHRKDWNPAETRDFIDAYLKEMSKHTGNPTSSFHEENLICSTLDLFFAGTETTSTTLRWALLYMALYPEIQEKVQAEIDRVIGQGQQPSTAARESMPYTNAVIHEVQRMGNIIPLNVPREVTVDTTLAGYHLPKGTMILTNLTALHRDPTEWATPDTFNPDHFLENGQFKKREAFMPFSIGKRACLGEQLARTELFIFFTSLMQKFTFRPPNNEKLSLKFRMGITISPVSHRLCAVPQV
Protocol: HiPSC-CM were seeded at a density 100,000 cell/well in a 12-well plate and differentiated for 30 days. […] The cells were then washed with 1×PBS twice and dislodged using Accutase® cell detachment solution. The cells were then pelleted at 2000 g for 10 min at 4° C. The supernatant was discarded and the pellets were resuspended in 100 μL of ice-cold ACN with 0.1 μM buspirone as an internal standard. The cells were sonicated for 15 min on ice to bring about complete cell lysis. The lysate was centrifuged at 10,000×g for 15 min at 4° C. The supernatant was collected and analyzed using LC/MS/MS.
The LC/MS/MS system consisted of an Agilent 1290 Infinity ultra-high pressure liquid chromatography (UPLC) system (Agilent Technologies Inc., Santa Clara, Calif.) interfaced with the AB SCIEX QTRAP® 5500 tandem mass spectrometry (MS/MS) system (AB SCIEX, Framingham, Mass.). The LC/MS/MS system was controlled by Analyst 1.4.2 software (Applied Biosystems) which performed all chromatographic peak integration. The ACQUITY UPLC BEH C18 column, 1.7 μM, 2.1×50 mm (Waters, Milford, Mass.), was used to achieve chromatographic separation. The temperatures of the column and samples were maintained at 45° C. and 4° C. respectively. The mobile phases were 0.2% acetic acid in 5 mM ammonium acetate (solvent A) and 0.2% acetic acid in ACN (solvent B). They were delivered at a flow rate of 0.6 mL/min. […]

T2 sequence (P08684 whole entry): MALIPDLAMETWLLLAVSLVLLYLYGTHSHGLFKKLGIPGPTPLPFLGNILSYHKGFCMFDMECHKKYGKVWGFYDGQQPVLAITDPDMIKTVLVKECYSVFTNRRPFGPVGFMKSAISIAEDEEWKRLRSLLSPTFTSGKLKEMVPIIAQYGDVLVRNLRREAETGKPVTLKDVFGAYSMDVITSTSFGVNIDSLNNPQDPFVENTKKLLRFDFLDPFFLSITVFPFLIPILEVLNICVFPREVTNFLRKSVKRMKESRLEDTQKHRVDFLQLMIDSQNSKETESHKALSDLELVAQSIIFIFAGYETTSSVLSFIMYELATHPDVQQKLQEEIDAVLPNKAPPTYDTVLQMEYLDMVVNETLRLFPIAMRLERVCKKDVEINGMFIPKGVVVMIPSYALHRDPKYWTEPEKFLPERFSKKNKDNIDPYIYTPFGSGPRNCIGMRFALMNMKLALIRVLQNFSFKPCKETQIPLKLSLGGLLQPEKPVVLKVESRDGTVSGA
T1 sequence (P20815 whole entry): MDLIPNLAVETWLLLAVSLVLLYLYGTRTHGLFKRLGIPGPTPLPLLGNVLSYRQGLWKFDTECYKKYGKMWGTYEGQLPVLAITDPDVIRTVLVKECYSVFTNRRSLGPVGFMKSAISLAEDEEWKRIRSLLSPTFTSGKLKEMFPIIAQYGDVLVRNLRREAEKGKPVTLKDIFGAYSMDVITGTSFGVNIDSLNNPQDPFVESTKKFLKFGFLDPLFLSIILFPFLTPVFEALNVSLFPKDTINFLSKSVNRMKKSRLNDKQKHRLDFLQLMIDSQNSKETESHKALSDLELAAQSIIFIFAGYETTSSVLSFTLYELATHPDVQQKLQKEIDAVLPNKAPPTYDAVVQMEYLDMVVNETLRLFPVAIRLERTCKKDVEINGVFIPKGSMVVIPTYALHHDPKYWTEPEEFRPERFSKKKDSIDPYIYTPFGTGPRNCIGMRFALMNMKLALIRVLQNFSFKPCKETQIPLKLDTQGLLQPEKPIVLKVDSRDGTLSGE

SMILES | elimination rate constant k by CYP3A5 (CYP3A5 [1]) | CLint (CYP3A5) (CYP3A5 [1]) | half-life at 1 μM (CYP3A5 [1]) | Intrinsic clearance, CLint CYP3A5 (CYP3A5 [1]) | Intrinsic clearance, CLint CYP3A5 (CYP3A5 [1]; listed as dronedarone) | KI (inactivation) (CYP3A5 [2]) | effect on extracellular field potential duration (FPD) (hiPSC-CM [3]) | beat-to-beat variability (BBV), inter-beat intervals in Poincaré plot (hiPSC-CM [4]) | elimination rate constant k by CYP3A4 (CYP3A4) | CLint (CYP3A4) (CYP3A4) | half-life at 1 μM (CYP3A4) | Intrinsic clearance, CLint CYP3A4 (CYP3A4) | Intrinsic clearance, CLint CYP3A4 (CYP3A4; listed as dronedarone) | inhibition of CYP2J2 in hiPSC-CM (CYP2J2; 24 h) | Intrinsic clearance, CLint CYP3A5 (CYP3A5 [1]; listed as poyendarone) | inhibition at 24 h, 2 μM (CYP2J2; human, hiPSC-derived cardiomyocytes (hiPSC-CM), probe astemizole (1 μM))
CCCCc1oc2ccc(NS(C)(=O)=O)cc2c1C(=O)c1ccc(OCCCN(CCCC)CCCC)cc1.Cl [Dronedarone] | 0.03989 min⁻¹ | 14.1812* μL/min/mg microsomal protein | 17.4 min | 3.99 µL/min/pmol | 3.989 µL/min/pmol | 5.37 µM | Dose-dependent increase in the FPD | do not cluster at the centroid of the ellipse and diffuse across the plot | 0.04144 min⁻¹ | 114.739* μL/min/mg microsomal protein | 16.7 min | 8.29 µL/min/pmol | 8.288 µL/min/pmol | 98% | – | –
Cl.[2H]c1c(NS(C)(=O)=O)c([2H])c2c(C(=O)c3ccc(OCCCN(CCCC)CCCC)cc3)c(CCCC)oc2c1[2H] [Poyendarone, Methanesulfonamide, N-(2-butyl-3-(4-(3-(dibutylamino)propoxy)benzoyl)-1-benzo(4,6,7-d3)-furan-5-yl)hydrochloride] | 0.02757 min⁻¹ | 14.2384* μL/min/mg microsomal protein | 25.1 min | 2.76 µL/min/pmol | – | 2.91 µM | Dose-dependent increase in the FPD | least variability among the beats; also recorded: lack of beat-to-beat variability (BBV) | 0.0918 min⁻¹ | 115.2016* μL/min/mg microsomal protein | 7.55 min | 9.18 µL/min/pmol | – | – | 2.757 µL/min/pmol | 50%

Source: US20220267288A1, “CARDIAC THERAPEUTIC” (priority 2019, published 2022)
